Patent US3948927A, “2,2-Dimethyl-3R-carboxy-6S-amino-1-oxa-4-aza-5R-bicyclo-[3,2,0]heptan-7-o ne” (Queen's University, priority 1974, dated 1976)
Values after ≈ are worked out from the molar mass of the structure shown.

What was measured:
Format in all cases: cell-based
[1] = tested on: S. lutea; assay: antibacterial activity vs. S. lutea; details: level relative to phthalimidopenicillin
Description: The compound was dissolved in methylene chloride and the solution extracted with 5% sodium bicarbonate. The aqueous extract was re-acidified to pH 2.5 and re-extracted with methylene chloride.
The crystalline trans acid in methylene chloride, was shaken with 5% bicarbonate for 5 min. The aqueous phase was then separated, acidified to pH 4.5 - 5.0 and extracted with methylene chloride. It was then acidifid to pH 2.5 and extracted twice with methylene chloride and twice with chloroform.

[2] = tested on: Str. pyogenes; assay: MIC, antibacterial activity; details: Streptococcus pyogenes; + 5% serum; 45% AAB at 10^-^3 dil'n + 50% Medium Shown
Source text: (§1) *45% AAB at 10^-^3 dil'n + 50% Medium Shown

[3] = tested on: D. pneumoniae; assay: MIC, antibacterial activity; details: Streptococcus pneumoniae; + 5% serum; 45% AAB at 10^-^3 dil'n + 50% Medium Shown
Source text: as §1

[4] = tested on: S. aureus; assay: MIC, antibacterial activity; details: Staphylococcus aureus
[5] = tested on: S. aureus BX-1633-2; assay: MIC, antibacterial activity; details: Staphylococcus aureus
[6] = tested on: Pr. mirabilis; assay: MIC, antibacterial activity; details: Proteus mirabilis; at 10^-^4 dil'n
[7] = tested on: Ser. marcescens; assay: MIC, antibacterial activity; details: Serratia marcescens; at 10^-^4 dil'n
[8] = tested on: E. coli Juhl; assay: MIC, antibacterial activity; details: Escherichia coli; at 10^-^4 dil'n
[9] = tested on: S. aureus Smith; assay: MIC, antibacterial activity; details: Staphylococcus aureus
[10] = tested on: E. coli; assay: MIC, antibacterial activity; details: Escherichia coli; at 10^-^4 dil'n
[11] = tested on: Ps. aeruginosa; assay: MIC, antibacterial activity; details: Pseudomonas aeruginosa; at 10^-^4 dil'n
[12] = tested on: Sal. enteritidis; assay: MIC, antibacterial activity; details: Salmonella enterica, at 10^-^4 dil'n
[13] = tested on: S. aureus Meth. Resist.; assay: MIC, antibacterial activity; details: Staphylococcus aureus
[14] = tested on: Pr. morganii; assay: MIC, antibacterial activity; details: Morganella morganii; at 10^-^4 dil'n
[15] = tested on: K. pneumoniae; assay: MIC, antibacterial activity; details: Klebsiella pneumoniae; at 10^-^4 dil'n
[16] = tested on: P. morganii and Ps. aeruginosa; assay: MIC of ampicillin versus resistant or β-lactamase producing bacteria, alone and with substituted azetidine-2-one; details: read-out: Minimum Inhibitory Concentration of ampicillin
[17] = antibacterial activity (organism not stated); details: at levels of 250 mcg./ml.

In the case of `CC1(C)O[C@@H]2[C@H](N3C(=O)c4ccccc4C3=O)C(=O)N2[C@H]1C(=O)O` [6-phthalimido oxapenicillin], the “antibacterial activity relative to phthalimidopenicillin” value [1] is reported as “one-tenth the level of phthalimidopenicillin”.
With `CC1(C)S[C@@H]2[C@H](NC(=O)Cc3ccccc3)C(=O)N2[C@H]1C(=O)O` [Penicillin G] the MIC [2] was 0.004 µg/mL, the MIC [3] was 0.004 µg/mL and the MIC ([4]; at 10^-^2 dil'n) was > 125 µg/mL. The MIC ([4]; at 10^-^3 dil'n) was 63 µg/mL (≈ 188 µM), the MIC ([5]; BX16332, at 10^-^2 dil'n) was > 125 µg/mL and the MIC ([5]; BX16332, at 10^-^3 dil'n) was 125 µg/mL (≈ 374 µM). The MIC [6] was 1 µg/mL (≈ 2.99 µM), the MIC [7] was > 125 µg/mL and the MIC [8] was 32 µg/mL (≈ 95.7 µM). For the same molecule, the MIC ([9]; at 10^-^4 dil'n) was 0.016 µg/mL (≈ 0.0478 µM), the MIC ([9]; at 10^-^4 dil'n + 5% serum) was 0.06 µg/mL and the MIC [10] was 125 µg/mL (≈ 374 µM). For the same molecule, the MIC [11] was > 125 µg/mL, the MIC [12] was 0.13 µg/mL (≈ 0.389 µM) and the MIC [13] was 125 µg/mL (≈ 374 µM). For the same molecule, the MIC [14] was > 125 µg/mL and the MIC [15] was 2 µg/mL (≈ 5.98 µM).
Work on `CC1(C)S[C@@H]2[C@H](NC(=O)[C@H](N)c3ccccc3)C(=O)N2[C@H]1C(=O)O` [ampicillin] yielded an MIC [16] of 500 to 1000 µg/mL.
With `CC(C)=C(C(=O)O)N1C(=O)[C@H]2N=C(Cc3ccccc3)O[C@H]21` [oxazoline carboxylic acid, 2-benzyl-6-(1'-carboxy-2'-methylprop-1'-enyl)-1-oxa-3,6-diaza-4S,5R-bicyclo [3,2,0] hept-2-en-7-one] the “activity as an antibacterial agent” value [17] was “inactive”.
